Measured values as given in ChEMBL document CHEMBL1201862, “PubChem BioAssay data set” (2004).
Active and inactive are the calls of the source.

How the values were obtained:
[1] = target: DNA dC->dU-editing enzyme APOBEC-3A (Homo sapiens, UniProt P31941); experiment: Dose Response confirmation of small molecule APOBEC3A DNA Deaminase Inhibitors via a fluorescence-based single-stranded DNA deaminase assay. [Related pubchem assays (depositor defined):AID493011, AID493024]; type: functional
[2] = target: G-protein coupled receptor 55 (Homo sapiens, UniProt Q9Y2T6); experiment: inhibition of LPI-stimulated GPR55 beta-arrestin translocation – imaging, U2OS, beta-arrestin-GFP, LPI agonist, primary screen (AID 2013); type: functional;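 also: antagonist potency measured as reduced agonist-driven arrestin aggregation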
[3] = target: DNA dC->dU-editing enzyme APOBEC-3G (Homo sapiens, UniProt Q9HC16); type: functional;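 also: Dose-response counterscreen measuring inhibition of APOBEC3G DNA deaminase activity, run while confirming APOBEC3A inhibitors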
[4] = target: T1, Runt-related transcription factor 1/Core-binding factor subunit beta (Homo sapiens, UniProt Q01196+Q13951); experiment: Runt domain/CBFb-SMMHC interaction disruptors – biochemical, TR-FRET (AID 1438); type: protein assay
Genome polyprotein = Genome polyprotein (dengue virus type 2, UniProt P29990); experiment: flavivirus cap methylation enzyme inhibition – biochemical, confirmation dose response, primary screen (AID 588689); type: functional
[5] = target: T1, Runt-related transcription factor 1/Core-binding factor subunit beta; experiment: disruptors of Runt domain/CBFb-SMMHC interaction – biochemical, FRET, Cerulean-Runt, Venus-CBFb-SMMHC, uHTS, […] (AID 1434); type: protein assay
CAAX prenyl protease 1 = CAAX prenyl protease 1 (Saccharomyces cerevisiae S288c, UniProt P47154); experiment: yeast CAAX protease Ste24 inhibition – biochemical, S. cerevisiae, plate reader, cherry-pick, dose response (AID 488815)
[6] = viability of PTEN-deleted HCT116 cells – cell-based, HCT116 PTEN knockout, dose response (AID 1047); type: functional;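 also: HCT116 colon tumor cells with PTEN knocked out; cells exposed to compound for 60 hours before readout; potency for loss of cell viability measured by luminescence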
SUMO-activating enzyme = SUMO-activating enzyme (Homo sapiens, UniProt Q9UBT2); experiment: blockers of UBC9-mediated SUMO conjugation – biochemical, AlphaScreen, SUMOylation inhibitor project, confirmation (AID 2018); type: functional
[7] = target: T2, Mannose-6-phosphate isomerase (Homo sapiens, UniProt P34949); experiment: MPI inhibition at elevated mannose 6-phosphate – biochemical, fluorescence intensity, high mannose 6-phosphate, primary screen (AID 1220)
T2 sequence (P34949 whole entry): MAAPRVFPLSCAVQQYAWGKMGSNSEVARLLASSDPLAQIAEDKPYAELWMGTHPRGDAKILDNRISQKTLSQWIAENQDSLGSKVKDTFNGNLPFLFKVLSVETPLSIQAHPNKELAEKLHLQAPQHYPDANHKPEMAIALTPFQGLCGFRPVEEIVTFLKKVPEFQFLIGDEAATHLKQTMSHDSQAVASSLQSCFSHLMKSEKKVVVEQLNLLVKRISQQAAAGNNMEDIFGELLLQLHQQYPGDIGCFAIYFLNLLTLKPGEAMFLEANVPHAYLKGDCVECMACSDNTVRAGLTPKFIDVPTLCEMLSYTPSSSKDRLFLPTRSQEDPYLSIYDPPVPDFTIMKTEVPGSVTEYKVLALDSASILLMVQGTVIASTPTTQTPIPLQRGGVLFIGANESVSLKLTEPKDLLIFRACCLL

[8] = fluconazole-exposed Candida albicans growth modulators – fluorescence, retest, confirmation (AID 2467); type: functional, cell-based
[9] = NIH-3T3 fibroblast cytotoxicity, dose response, cytotoxicity control, cell-based, fluorescence, Alamar Blue, secondary assay (AID 2327); type: functional;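 also: NIH-3T3 mouse fibroblasts cultured with fluconazole at 8 µg/mL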
[10] = target: Alkaline phosphatase, placental type (Homo sapiens, UniProt P05187); experiment: human placental alkaline phosphatase inhibition – biochemical, luminescence, confirmation (AID 1512); type: functional
Estrogen receptor beta = Estrogen receptor beta (Homo sapiens, UniProt Q92731); experiment: blockers of SRC-3 recruitment to ERβ – biochemical, ELISA, streptavidin-HRP readout, orthogonal assay, confirmation (AID 1060)
Bcl-2-like protein 10 = target: T3, Bcl-2-like protein 10 (Homo sapiens, UniProt Q9HD36); experiment: Bcl-B/TR3 peptide binding disruption – biochemical, fluorescence polarization, FITC-TR3 peptide, selectivity assay for Bfl-1 inhibitor project, primary screen (AID 748);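 also: fluorescence polarization from a fluorescein-labelled TR3 peptide binding purified Bcl-B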
T3 sequence (Q9HD36 whole entry): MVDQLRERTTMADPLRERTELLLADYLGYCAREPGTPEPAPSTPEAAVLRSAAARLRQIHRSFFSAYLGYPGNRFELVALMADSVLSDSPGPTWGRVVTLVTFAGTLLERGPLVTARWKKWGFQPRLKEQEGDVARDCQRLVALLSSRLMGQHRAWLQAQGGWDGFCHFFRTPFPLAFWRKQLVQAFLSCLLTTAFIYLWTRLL

[11] = Luminescence Cell-Based Dose Retest to Confirm Inhibitors of Cancer Stem Cells. [Related pubchem assays (depositor defined):AID2717, AID2721]; type: functional; conditions: Homo sapiens
Leucine aminopeptidase = target: T4, Leucine aminopeptidase (Plasmodium falciparum 3D7, UniProt Q8IL11); experiment: P. falciparum M17LAP inhibitors, primary screen, biochemical, fluorogenic H-Leu-NHMec substrate, 1536-well (AID 1619); type: functional
T4 sequence (Q8IL11 whole entry): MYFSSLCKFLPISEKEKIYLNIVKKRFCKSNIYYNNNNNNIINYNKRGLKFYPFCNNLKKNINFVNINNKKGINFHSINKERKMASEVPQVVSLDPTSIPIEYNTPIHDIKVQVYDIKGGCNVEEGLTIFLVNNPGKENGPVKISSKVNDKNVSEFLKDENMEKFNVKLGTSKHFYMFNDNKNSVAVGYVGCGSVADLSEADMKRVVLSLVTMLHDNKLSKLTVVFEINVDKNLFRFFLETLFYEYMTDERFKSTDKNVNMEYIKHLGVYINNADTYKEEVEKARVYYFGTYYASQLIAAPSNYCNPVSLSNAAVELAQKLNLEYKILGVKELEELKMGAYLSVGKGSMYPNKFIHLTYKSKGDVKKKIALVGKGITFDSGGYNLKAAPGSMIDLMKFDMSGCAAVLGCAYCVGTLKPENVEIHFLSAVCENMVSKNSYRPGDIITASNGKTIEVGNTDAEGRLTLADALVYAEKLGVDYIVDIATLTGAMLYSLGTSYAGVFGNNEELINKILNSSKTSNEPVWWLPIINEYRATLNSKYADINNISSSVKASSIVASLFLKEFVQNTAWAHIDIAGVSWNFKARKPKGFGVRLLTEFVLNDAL

[12] = target: T5, Short transient receptor potential channel 4 (Mus musculus, UniProt Q9QUQ5); experiment: block of DAMGO-driven TRPC4 calcium entry – cell-based, HEK293 TRPC4/mu-opioid, Fluo-4 calcium, dose response (AID 434942); type: functional;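 also: potency of inhibitors blocking the TRPC4 calcium response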
T5 sequence (Q9QUQ5 whole entry): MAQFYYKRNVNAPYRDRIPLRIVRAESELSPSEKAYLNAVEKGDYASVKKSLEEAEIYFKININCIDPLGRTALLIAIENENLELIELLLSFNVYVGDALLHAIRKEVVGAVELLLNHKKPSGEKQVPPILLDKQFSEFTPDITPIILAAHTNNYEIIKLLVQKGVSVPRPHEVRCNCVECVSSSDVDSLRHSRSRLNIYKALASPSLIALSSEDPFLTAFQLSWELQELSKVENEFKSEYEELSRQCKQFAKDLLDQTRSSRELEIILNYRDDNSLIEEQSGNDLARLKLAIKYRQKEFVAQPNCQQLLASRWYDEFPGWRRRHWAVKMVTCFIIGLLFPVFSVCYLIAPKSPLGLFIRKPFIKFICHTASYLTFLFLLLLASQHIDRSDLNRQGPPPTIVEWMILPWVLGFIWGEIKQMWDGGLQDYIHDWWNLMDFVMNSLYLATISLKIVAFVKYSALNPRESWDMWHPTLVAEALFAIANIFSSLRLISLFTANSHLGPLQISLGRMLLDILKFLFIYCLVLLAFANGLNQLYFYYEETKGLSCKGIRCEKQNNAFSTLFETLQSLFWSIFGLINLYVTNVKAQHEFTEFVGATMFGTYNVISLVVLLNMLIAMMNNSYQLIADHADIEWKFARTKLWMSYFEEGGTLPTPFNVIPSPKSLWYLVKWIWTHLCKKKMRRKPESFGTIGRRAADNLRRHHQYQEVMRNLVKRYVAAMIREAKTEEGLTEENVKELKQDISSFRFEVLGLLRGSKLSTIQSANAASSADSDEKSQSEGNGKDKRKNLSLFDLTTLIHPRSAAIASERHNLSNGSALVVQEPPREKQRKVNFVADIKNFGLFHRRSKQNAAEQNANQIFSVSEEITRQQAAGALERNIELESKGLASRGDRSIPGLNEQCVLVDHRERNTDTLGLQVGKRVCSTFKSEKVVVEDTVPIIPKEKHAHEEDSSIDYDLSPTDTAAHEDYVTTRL

Troponin, cardiac muscle = Troponin, cardiac muscle (Homo sapiens, UniProt P19429+P45379+P63316); experiment: Fluorescence-based biochemical high throughput dose response assay for activators of the calcium sensitivity of cardiac Regulated Thin Filaments (RTF). [Related pubchem assays (depositor defined):AID493008, AID493018, AID504382, AID504383]; type: protein-complex assay
[13] = target: T6, Voltage-gated N-type calcium channel alpha-1B subunit/Amyloid beta A4 precursor protein-binding family A member 1 (Homo sapiens, UniProt Q00975+Q02410); experiment: disruptors of Mint-PDZ/N-type channel peptide interaction – biochemical, HTRF, SAR follow-up (AID 2489); type: functional
[14] = target: T6, Voltage-gated N-type calcium channel alpha-1B subunit/Amyloid beta A4 precursor protein-binding family A member 1; experiment: disruptors of Mint-PDZ/N-type channel peptide interaction – biochemical, HTRF, set 2, SAR follow-up (AID 434980); type: functional
SUMO E1/E2 = SUMO E1/E2 (Homo sapiens, UniProt P63279+Q9UBE0+Q9UBT2); experiment: SAR analysis of SUMOylation using HTRF in an in-Vitro dose response assay. [Related pubchem assays (depositor defined):AID2006, AID2011, AID2018, AID2069, AID2658]; type: functional
[15] = target: T7, Sphingosine 1-phosphate receptor 4 (Homo sapiens, UniProt O95977); experiment: Late-stage fluorescence dose response cell-based assay to identify agonists of the Sphingosine 1-Phosphate Receptor 4 (S1P4): purchased compounds EC50. [Related pubchem assays (depositor defined):AID1509, AID1523, AID1563, AID1686, AID1701, AID1801]; type: functional
T7 sequence (O95977 whole entry): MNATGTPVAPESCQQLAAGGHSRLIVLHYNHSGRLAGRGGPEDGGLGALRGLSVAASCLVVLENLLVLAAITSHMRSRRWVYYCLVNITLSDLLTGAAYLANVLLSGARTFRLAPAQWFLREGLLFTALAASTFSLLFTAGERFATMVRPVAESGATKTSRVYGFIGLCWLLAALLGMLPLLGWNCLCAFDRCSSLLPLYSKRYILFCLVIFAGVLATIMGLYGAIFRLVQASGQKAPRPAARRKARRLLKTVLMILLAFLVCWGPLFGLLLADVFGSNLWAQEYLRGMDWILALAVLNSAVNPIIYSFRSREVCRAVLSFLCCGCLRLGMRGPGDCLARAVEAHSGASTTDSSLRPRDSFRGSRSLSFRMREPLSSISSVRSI

COC(=O)C1=C(C)N(Cc2ccccc2)C(NCCc2cccnc2)=N[C@H]1c1ccccc1
IC50 [1]: 2.69 µM (active) | IC50 [2]: 1.08 µM (active) | IC50 [3]: 4.62 µM (active)

CCC1(C)Cc2c(sc3[nH]c(=O)[nH]c(=O)c23)CS1 (stereo not given)
IC50 [4]: 45.1 µM (active) | IC50 (Genome polyprotein): 88.7 µM (active) | IC50 [5]: 38.5 µM (active)

CCOC(=O)c1sc2nc(C3CC3)cc(-c3ccc(F)cc3)c2c1N
AC50 (CAAX prenyl protease 1): 3.7 µM (active)

Cc1cc(NC(=O)Cn2c(=O)n(Cc3ccccc3)c(=O)c3ccccc32)no1
EC50 [6]: 35.9 µM (active) | IC50 (SUMO-activating enzyme): 67.7 µM (active)

O=C(Cc1cnn(-c2ccccc2)c1)c1ccc(O)c(O)c1O
IC50 [7]: 4.69 µM (active) | EC50 [8]: > 38 µM (not active) | IC50 (Genome polyprotein): 75.7 µM (active) | EC50 [9]: > 150 µM (inactive) | IC50 [10]: > 100 µM (inactive) | IC50 (Estrogen receptor beta): 34.5 µM (not active) | IC50 (Bcl-2-like protein 10): 39.5 µM (active)

O=C(Nc1cc(N2CCOCC2)ncn1)NC1(C(F)(F)F)Oc2ccc(Cl)cc2O1 (stereo not given)
AC50 [11]: 7.43 µM (active) | IC50 [7]: 18.1 µM (active) | IC50 (Leucine aminopeptidase): 32.4 µM (active) | IC50 [10]: 10.4 µM (active)

COc1cc2ccccc2c2c1CCCC2=O
EC50 [12]: 2.99 µM (active)

CC1=CC(=C(C#N)c2nc3ccccc3s2)C=C(C)N1c1ccc(F)cc1
EC50 (Troponin, cardiac muscle): > 7.94 µM (active)

COc1ccc(/C=C2\SC(=S)N(CCCC(=O)Nc3ccccc3C(=O)O)C2=O)cc1OC
EC50 (Troponin, cardiac muscle): 12.9 µM (inactive)

COc1ccccc1C(=O)NC(=O)COC(=O)c1cc(-c2ccco2)nc2ccccc12
IC50 [13]: 15.4 µM (active) | IC50 [14]: 3.41 µM (active) | IC50 (SUMO E1/E2): 2.06 µM (active)

Cc1ccc(CNC(=O)C(C)OC(=O)c2c(C)nn(Cc3ccc(C)cc3)c2Cl)cc1 (stereo not given)
EC50 [15]: > 50 µM (inactive)

CCNC(=O)NC(=O)C(C)OC(=O)c1cc2c(C)nn(Cc3ccccc3)c2s1 (stereo not given)
EC50 [15]: > 50 µM (inactive)

Cc1ccc(-n2c(C)cc(/C=N/NC(=O)Cn3c4ccccc4c(=O)c4ccccc43)c2C)cc1
IC50 [4]: 13 µM (active) | IC50 [5]: 2.37 µM (active)
